Experimental data reported in article PMC10571957, “αV-Integrin-Dependent Inhibition of Glioblastoma Cell Migration, Invasion and Vasculogenic Mimicry by the uPAcyclin Decapeptide” (Cancers, 2023).
“And” between values parts separate entries of the source, which are not always exact repeats. Equal entries are not always repeated.

How the values were obtained:
Type in all cases: cell-based, human
U87-MG cells = assay: Boyden chamber Matrigel invasion, U87-MG; conditions: for invasion, % basal, average expt 1: mean of expt 1
Method: The migration and invasion assays were performed using Boyden chambers and 8 µm pore size PVP-free filters coated with 50 µg/mL of collagen type VI (Sigma), as previously described. For the invasion assays, collagen-coated filters were further coated with 50 µg/mL Matrigel^TM (Sigma). Briefly, 11 × 10^4 U87-MG, 4 × 10^4 U251-MG, or 4 × 10^4 U138-MG/sample were pre-treated for 40 min at 37 °C with the indicated effectors. Then, the cells were allowed to migrate for 3 h or to invade for 5 h at 37 °C toward 5% FBS in DMEM/0.1% BSA. At the end of both assays, the cells on the lower filter surface were fixed, stained with haematoxylin, and counted under an optical microscope (Zeiss Axiophot, Carl Zeiss, Milan, Italy) at 20× magnification. […] The migrated or invaded cells were reported as percentage of basal migration or invasion in the presence of DMEM/0.1% BSA, taken as 100%, and analyzed as reported in Section 2.11.
Figure 4 Effect of uPAcyclin on matrix invasion of U87-MG, U251-MG, and U138-MG GBM cells. Quantitative analysis of U87-MG (A), U251-MG (B), and U138-MG (C) invasion. […] Data are expressed as in the legend to Figure 3. Results are expressed as percentages with respect to the basal invasion, considered as 100% (* p-value < 0.05; ** p-value < 0.005; *** p-value < 0.001).

U251-MG cells = assay: Boyden chamber Matrigel invasion, U251-MG; conditions: for invasion, % of basal, average 2 expts: mean of 2 expts; for invasion, % of basal, average expt 1: mean of expt 1; for invasion, % of basal, average expt 2: mean of expt 2; for invasion, % of basal, T-test list: single replicates of both expts
Method: The migration and invasion assays were performed using Boyden chambers and 8 µm pore size PVP-free filters coated with 50 µg/mL of collagen type VI (Sigma), as previously described. For the invasion assays, collagen-coated filters were further coated with 50 µg/mL Matrigel^TM (Sigma). Briefly, 11 × 10^4 U87-MG, 4 × 10^4 U251-MG, or 4 × 10^4 U138-MG/sample were pre-treated for 40 min at 37 °C with the indicated effectors. Then, the cells were allowed to migrate for 3 h or to invade for 5 h at 37 °C toward 5% FBS in DMEM/0.1% BSA. At the end of both assays, the cells on the lower filter surface were fixed, stained with haematoxylin, and counted under an optical microscope (Zeiss Axiophot, Carl Zeiss, Milan, Italy) at 20× magnification. The migration and invasion experiments were conducted in triplicate for U87-MG and in duplicate for U251-MG and U138-MG. The migrated or invaded cells were reported as percentage of basal migration or invasion in the presence of DMEM/0.1% BSA, taken as 100%, and analyzed as reported in Section 2.11.
Figure 4 Effect of uPAcyclin on matrix invasion of U87-MG, U251-MG, and U138-MG GBM cells. Quantitative analysis of U87-MG (A), U251-MG (B), and U138-MG (C) invasion. A total of 11 × 10^4 U87-MG or […] U251-MG or U138-MG/sample were pre-treated for 40 min at 37 °C with uPAcyclin (100 nM, 1 µM), anti-αV polyclonal (anti-αV-Pclonal) or monoclonal (anti-αV MoAb) antibody, or anti-actin polyclonal antibody (anti-actin), and then assayed in Boyden chambers at 37 °C, either for basal (BSA) or FBS-dependent invasion (5% FBS) for 5 h at 37 °C. Data are expressed as in the legend to Figure 3. Results are expressed as percentages with respect to the basal invasion, considered as 100% (* p-value < 0.05; ** p-value < 0.005; *** p-value < 0.001).

U138-MG cells = assay: Cell viability/proliferation (Trypan blue), U138-MG; conditions: 1 nM or 100 nM, 72–96 h
Method: Cell viability was tested in DMEM/10% FBS, in the presence of 1 nM or 100 nM uPAcyclin, either by Trypan blue exclusion or by thiazolyl blue tetrazolium bromide (MTT) assays, as specified in the figure legends. For the Trypan blue assay, 4 × 10^4 U87-MG, U251-MG, U138-MG, and C6 cells/sample were grown in 12-well plates, and followed for 24, 48 and 72 h. As a negative control, the cells were grown in a serum-free medium. Then, the cells were detached, stained with a 0.2% (w/v) Trypan blue solution, counted using a Burker chamber (T0 = 100%), and reported as number of viable cells/total.

[1] = 100 nM, 5% FBS, 5 h, expt 1, duplicates
[2] = 100 nM, 5% FBS, 5 h, expt 2, duplicates
[3] = 100 nM, 5% FBS, 5 h, expt 3, duplicates
[4] = 1 µM, 5% FBS, 5 h, expt 1, duplicates
[5] = 1 µM, 5% FBS, 5 h, expt 2, duplicates

Ac-K^1P[ESPPEELK^10]-NH2 (sidechain bridge or staple) [uPAcyclin]
reduction in invasion (U87-MG cells; 100 nM, U87-MG, 5% FBS, 5 h): 50–60%
invaded cell number/field (U87-MG cells; [1]): 29 cell number/field and 28 cell number/field
invasion, % of basal (U87-MG cells; [1]): 111% and 108%
invaded cell number/field (U87-MG cells; [2]): 28 cell number/field and 29 cell number/field
invasion, % of basal (U87-MG cells; [2]): 117% and 121%
invaded cell number/field (U87-MG cells; [3]): 34 cell number/field and 33 cell number/field
invasion, % of basal (U87-MG cells; [3]): 131% and 127%
Invasion, %, average 3 expts (U87-MG cells; 100 nM, mean of 3 expts): 119%
invasion, % basal, average expt 1 (U87-MG cells; 100 nM): 110%
invasion, % basal, average expt 2 (U87-MG cells; 100 nM, mean of expt 2): 119%
invasion, % basal, average expt 3 (U87-MG cells; 100 nM, mean of expt 3): 129%
invasion, % of basal, T-test list (U87-MG cells; 100 nM, single replicates of 3 expts): 111 and 108 and 117 and 121 and 131 and 127
invasion, in words (U87-MG cells; 1 µM, U87-MG, 5% FBS, 5 h): reduced invasion to basal levels
invaded cell number/field (U87-MG cells; [4]): 24 cell number/field and 26 cell number/field
invasion, % of basal (U87-MG cells; [4]): 92% and 100%
Invasion, %, average 3 expts (U87-MG cells; 1 µM, headed average 3 expts (only expt 1 has data)): 96%
invasion, % basal, average expt 1 (U87-MG cells; 1 µM): 96%
invasion, % of basal, T-test list (U87-MG cells; printed 10 µM, single replicates): 92 and 100
reduction in invasion (U251-MG cells; 100 nM, U251-MG, 5% FBS, 5 h): 50–60%
invaded cell number/field (U251-MG cells; [1]): 14 cell number/field
invasion, % of basal (U251-MG cells; [1]): 156%
invaded cell number/field (U251-MG cells; [2]): 15 cell number/field and 14 cell number/field
invasion, % of basal (U251-MG cells; [2]): 136% and 127%
invasion, % of basal, average 2 expts (U251-MG cells; 100 nM, 5% FBS, 5 h): 144%
invasion, % of basal, average expt 1 (U251-MG cells; 100 nM, 5% FBS, 5 h): 156%
invasion, % of basal, average expt 2 (U251-MG cells; 100 nM, 5% FBS, 5 h): 132%
invasion, % of basal, T-test list (U251-MG cells; 100 nM): 156 and 136 and 127
invasion, in words (U251-MG cells; 1 µM, U251-MG, 5% FBS, 5 h): reduced invasion to basal levels
invaded cell number/field (U251-MG cells; [4]): 11 cell number/field and 9 cell number/field
invasion, % of basal (U251-MG cells; [4]): 122% and 100%
invaded cell number/field (U251-MG cells; [5]): 12 cell number/field and 10 cell number/field
invasion, % of basal (U251-MG cells; [5]): 109% and 91%
invasion, % of basal, average 2 expts (U251-MG cells; 1 µM, 5% FBS, 5 h): 106%
invasion, % of basal, average expt 1 (U251-MG cells; 1 µM, 5% FBS, 5 h): 111%
invasion, % of basal, average expt 2 (U251-MG cells; 1 µM, 5% FBS, 5 h): 100%
invasion, % of basal, T-test list (U251-MG cells; 1 µM): 122 and 100 and 109 and 91
proliferation/viability (U138-MG cells): unaffected by uPAcyclin, regardless of the concentration employed
